Experimental data: article PMC5442318, “Hundreds of dual-stage antimalarial molecules discovered by a functional gametocyte screen” (Nature Communications, 2017)
Like-named read-outs stand apart in the source and are kept apart here.

Columns and labels:
[1] = system: P. falciparum stage V female gametocytes; experiment: P. falciparum female gametocyte activation assay (Pf FGAA), 24 h or 48 h preincubation, Pfs25 expression readout; type: cell-based, Plasmodium falciparum NF54; parameters: key to Biological profile: 49 compounds that were only active with a 48 h exposure (designated as slow-acting); 29 compounds additionally showed activity with only 24 h exposure (designated as fast-acting); when the compounds were added 30 min after triggering gametocyte activation, 12 compounds prevented cell surface expression of Pfs25 (designated as gamete-targeting); details: for Pf FGAA classification: SLOW / FAST / GAMETE from activity at 48h, 24h, 0h incubation
Outline: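 Purified stage V gametocytes from P. falciparum NF54 gametocyte cultures were exposed to compounds for 24 h or 48 h at 37 °C under 3% O2/5% CO2, then activated by temperature drop plus xanthurenic acid. Activated females were stained with Cy3-anti-Pfs25 (0.5 μg ml^−1) for 24 h at 26 °C and counted by high-content imaging; pIC50 by nonlinear regression.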

[2] = system: P. falciparum female gametes; experiment: Pf FGAA with compounds added 30 min after triggering gametocyte activation (gamete-targeting); type: cell-based, Plasmodium falciparum NF54; details: 0h incubation time
[3] = system: P. falciparum stages IV–V gametocytes; experiment: Gametocytocidal ATP-depletion assay (gametocyte ATP bioluminescence); type: cell-based, Plasmodium falciparum; details: for inhibition at 2 µM: Plasmodium falciparum, mean
Outline: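 Purified stage IV–V gametocytes (12,500/well) incubated with compound for 48 h at 37 °C under 3% O2/5% CO2. ATP measured by BacTiter-Glo luminescence as a viability surrogate; hits tested at 2 μM single concentration.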

[4] = system: HepG2 cells; experiment: HepG2 cytotoxicity assay; type: cell-based; details: for Selectivity ratio: HepG2 TOX50 vs Pf FGAA IC50
Outline: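 Steps: equilibrate plates and detection reagent at room temperature (30 min); dispense CellTiter-Glo; allow 10 min at room temperature; record luminescence.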

[5] = system: P. falciparum asexual blood stages; details: TCAMS data, cited from earlier work; for IC50: ref 1 (Gamo et al., 2010), read-out: Pf Asexual blood stages XC50; for Pf Asexual stages XC50: ref 1 (Gamo, F. J. et al., Nature 465, 305-310, 2010)
[6] = 24h incubation time, read-out: Pf FGAA IC50 (µM) 24h
[7] = mean, read-out: Gametocytes mean Pf FGAA IC50
[8] = Plasmodium falciparum, 24h incubation time, read-out: Pf FGAA IC50 (µM) 24h

Compound: CN(C)CCNCc1cccc(-c2ccc3c(Nc4ccc(Oc5ccccn5)cc4)ccnc3c2)c1 [TCMDC-138493]
- IC50 [1, 6]: 2.58 µM
- Pf FGAA classification [1]: GAMETE
- IC50 [1, 7]: 0.82 µM
- IC50 [2]: 2.27 µM
- Gametocytes mean ATP inhibition at 2µM (%) [3]: 38.43%
- HepG2 cells mean TOX50 [4]: 3.98 µM
- IC50 [5]: 230 nM
- Pf Asexual stages XC50 [5]: 230 nM

Compound: CN(/N=C/C=C/c1ccc(Cl)cc1)c1nc(NCCc2ccc(O)cc2)nc(N2CCNCC2)n1 [TCMDC-138546]
- IC50 [1, 6]: 11.2 µM
- Pf FGAA classification [1]: SLOW
- IC50 [1, 7]: 1.96 µM
- IC50 [2]: > 20 µM
- Gametocytes mean ATP inhibition at 2µM (%) [3]: -1.95%
- HepG2 cells mean TOX50 [4]: 13.18 µM
- IC50 [5]: 870 nM
- Pf Asexual stages XC50 [5]: 870 nM

Compound: Clc1ccc(Nc2nc(NCc3ccccc3)nc(N/N=C/c3ccccn3)n2)cc1 [TCMDC-138557]
- IC50 [1, 8]: 0.4 µM
- IC50 ([1]; Plasmodium falciparum, mean, read-out: Gametocytes mean Pf FGAA IC50): 0.26 µM
- Pf FGAA classification [1]: FAST
- IC50 ([2]; Plasmodium falciparum): 2.98 µM
- inhibition at 2 µM [3]: 35.7%
- Selectivity ratio [4]: 53.35
- HepG2 cells mean TOX50 [4]: 13.96 µM
- IC50 [5]: 780 nM
- Pf Asexual stages XC50 [5]: 780 nM

Compound: CC(C)(C)c1ccc(CNCCOc2ccc(Nc3nnc(-c4ccc(-c5ncc[nH]5)cc4)o3)c3ccccc23)cc1.O=C(O)C(F)(F)F [TCMDC-138667]
- IC50 [1, 6]: 3.03 µM
- Pf FGAA classification [1]: SLOW
- IC50 [1, 7]: 0.62 µM
- IC50 [2]: 13.2 µM
- Gametocytes mean ATP inhibition at 2µM (%) [3]: -11.45%
- HepG2 cells mean TOX50 [4]: 5.96 µM
- IC50 [5]: 140 nM
- Pf Asexual stages XC50 [5]: 140 nM

Compound: COC(=O)c1ccc(-c2ccc(C(=O)NCC3CCN(c4nc(N)c5cc(OC)c(OC)cc5n4)CC3)cc2)cc1 [TCMDC-138721]
- IC50 [1, 6]: 1.88 µM
- Pf FGAA classification [1]: FAST
- IC50 [1, 7]: 0.91 µM
- IC50 [2]: 13.5 µM
- Gametocytes mean ATP inhibition at 2µM (%) [3]: 31.66%
- HepG2 cells mean TOX50 [4]: 6.10 µM
- IC50 [5]: 190 nM
- Pf Asexual stages XC50 [5]: 190 nM

Compound: O=C(Nc1ccc(-c2ccccc2)c(OCCN2CCNCC2)c1)c1ccc(-c2ccc(Cl)cc2)cc1 [TCMDC-138818]
- IC50 [1, 6]: 1.75 µM
- Pf FGAA classification [1]: FAST
- IC50 [1, 7]: 1.38 µM
- IC50 [2]: > 20 µM
- Gametocytes mean ATP inhibition at 2µM (%) [3]: 1.63%
- HepG2 cells mean TOX50 [4]: 4.95 µM
- IC50 [5]: 780 nM
- Pf Asexual stages XC50 [5]: 840 nM

Compound: COc1cc2nc(-c3ccc(Br)cc3)cc(N)c2cc1OC [TCMDC-138933]
- Biological profile ([1]; Pf FGAA with 48 h, 24 h or post-activation addition, active = IC50 below 2 μM): slow-acting
- IC50 [1, 8]: 3.91 µM
- IC50 ([1]; Plasmodium falciparum, stage V gametocytes, 48 h exposure, read-out: PfFGAA IC50): 0.76 µM
- Pf FGAA classification [1]: SLOW
- IC50 ([2]; Plasmodium falciparum): 8.17 µM
- inhibition at 2 µM [3]: 0.89%
- Selectivity ratio [4]: 6.53
- selectivity ratio (selectivity index) ([4]; HepG2 Tox50 vs Pf FGAA IC50): < 10
- HepG2 cells mean TOX50 [4]: 4.95 µM
- IC50 [5]: 170 nM
- Pf Asexual stages XC50 [5]: 170 nM

Compound: CCN1CCC2(c3cccc(OC)c3)Cc3nc4ccccc4c(-c4ccccc4)c3CC2C1 (centres unmarked) [TCMDC-138968]
- IC50 [1, 6]: > 20 µM
- Pf FGAA classification [1]: SLOW
- IC50 [1, 7]: 1.43 µM
- IC50 [2]: > 20 µM
- Gametocytes mean ATP inhibition at 2µM (%) [3]: 21.53%
- HepG2 cells mean TOX50 [4]: 33.25 µM
- IC50 [5]: 350 nM
- Pf Asexual stages XC50 [5]: 790 nM

Compound: CN1CCN(c2cc3c(cc2Cl)CCN3C(=O)Nc2ccc(NC(=O)c3ccc(C(F)(F)F)cc3)cc2)CC1.Cl [TCMDC-139270]
- IC50 [1, 6]: 1.54 µM
- Pf FGAA classification [1]: FAST
- IC50 [1, 7]: 0.69 µM
- IC50 [2]: > 20 µM
- Gametocytes mean ATP inhibition at 2µM (%) [3]: 1.67%
- HepG2 cells mean TOX50 [4]: 3.99 µM
- IC50 [5]: 510 nM
- Pf Asexual stages XC50 [5]: 1100 nM

Compound: O=C(Nc1cc(Cl)c(Cl)cc1NC(=O)c1cccc(-c2ccccc2)c1O)c1cccc(-c2ccccc2)c1O [TCMDC-139548]
- IC50 [1, 6]: 2.22 µM
- Pf FGAA classification [1]: FAST
- IC50 [1, 7]: 1.09 µM
- IC50 [2]: > 20 µM
- Gametocytes mean ATP inhibition at 2µM (%) [3]: 18.16%
- HepG2 cells mean TOX50 [4]: 3.09 µM
- IC50 [5]: 510 nM
- Pf Asexual stages XC50 [5]: 510 nM

Compound: CC(Cc1ccc(NC(=O)c2ccc(CC(C)NCc3ccc(Cl)cc3)cc2)cc1)NCCc1cccc(Cl)c1 (centres unmarked) [TCMDC-139810]
- IC50 [1, 6]: 9.9 µM
- Pf FGAA classification [1]: SLOW
- IC50 [1, 7]: 0.86 µM
- IC50 [2]: > 20 µM
- Gametocytes mean ATP inhibition at 2µM (%) [3]: -5.12%
- HepG2 cells mean TOX50 [4]: 4.03 µM
- IC50 [5]: 450 nM
- Pf Asexual stages XC50 [5]: 450 nM
